# According to PubChem BioAssay AID602464 (Sanford-Burnham Center for Chemical Genomics, 2012):
# Activity calls are given as the source filed them. Cut-off read from the data, not from the text of the source: active = IC50 below about 20 µM; inactive = the rest.
# Tested on: Gli-responsive luciferase reporter cells, SUFU pathway antagonism
# Experiment: blockers of Gli reporter signaling – cell-based, luciferase luminescence, uHTS hits, dose response (AID 602464)
row,Structure (SMILES),IC50
1,Cc1nn(-c2ccc(NC(=O)c3ccncc3)cc2)c(C)c1Cl,9.25 µM
2,O=C(N[C@@H]1C/C=C\C[C@H](CC(=O)N(CCO)Cc2ccccc2)C(=O)NC[C@@H](c2ccccc2)OC1=O)OCC1c2ccccc2-c2ccccc21,6.27 µM
3,NC(=O)CC(NC(=O)c1ccccc1)c1ccc(N2CCCCCC2)c([N+](=O)[O-])c1 (centres undefined),> 20 µM (inactive)
4,Cc1nn(C)c(C(=O)NCc2ccc(Cl)cc2)c1Cl,8.1 µM
5,CCN(CC(=O)Nc1c(F)cccc1F)C(=O)c1cc(S(=O)(=O)N(CC)CC)ccc1N1CCCCC1,12.2 µM
6,CCC(C)[C@H]1CN=C(N)N1CCc1cccc2ccccc12 (some centres undefined),6.63 µM
7,O=C(Cc1csc(Nc2nc(=S)[nH]c3ccccc23)n1)NCCCN1CCN(c2ccccc2F)CC1,> 20 µM (inactive)
8,COc1ccccc1NS(=O)(=O)c1cccc(C(=O)NC2CCN(Cc3ccccc3)CC2)c1,> 20 µM (inactive)
9,CCCCOc1ccc(N2C(N)=NC(N)=NC23CCCCC3)cc1,17.1 µM
10,C=CCOc1nc2c(c(=O)n(C)c(=O)n2C)n1Cc1ccc(Cl)cc1Cl,10.3 µM
11,CC(C)CCOC(=O)C[N+](C)(C)CCOC1CC2CCC1(C)C2(C)C (centres undefined),5.18 µM
12,CCCN1CCC(=O)N([C@H](CSc2ccc(OC)cc2)Cc2ccccc2)CC1,9.77 µM
13,CC1CCC(NC(=O)c2cccc(S(=O)(=O)N3CCN(c4ccccc4)CC3)c2)CC1 (centres undefined),9.93 µM
14,COCCNc1nc2c(c(=O)n(C)c(=O)n2C)n1Cc1cccc(C)c1,7.26 µM
15,Brc1ccc(-c2csc(N3CCCCCC3)n2)cc1,1.02 µM
16,CC[N+](CC)(CC#Cc1ccccc1)CC#Cc1ccccc1,4.37 µM
17,CCCOc1ccc(Br)cc1CSC(=N)N,9.84 µM
18,CCCn1c2c(c(=N)c3c1CCC3)CCCC2,11 µM
19,c1ccc(-c2cn(-c3ccccc3)c3[n+]2CCS3)cc1,6.57 µM
20,c1ccc(-c2c[n+]3c(n2-c2ccccc2)CCC3)cc1,> 20 µM (inactive)
21,CCOC(=O)CC1CCCCN1C(=O)c1cc(COc2cccc3cnccc23)on1 (centres undefined),4.47 µM
22,O=C(c1cccc(S(=O)(=O)N2CCN(c3ccccc3)CC2)c1)N1CCCC(C(F)(F)F)C1 (centres undefined),8.01 µM
23,c1ccc(C[n+]2cccc(-c3ccccc3)c2)cc1,10.8 µM
24,CC(NC(=O)c1cc2c(=O)n3ccccc3nc2n(CC2CCCO2)c1=N)c1ccccc1 (centres undefined),> 20 µM (inactive)
25,CCOc1ccc(-n2c(-c3ccc(Cl)cc3)c[n+]3c2SCC3)cc1,3.49 µM
26,COc1ccc(Cn2c(-c3ccc(Cl)cc3)c[n+]3ccccc23)cc1,7.28 µM

row,Structure (SMILES),IC50
1,O=C(c1cc2sccc2n1Cc1ccccc1)N1CCN(c2nc3ccccc3s2)CC1,4.67 µM
2,CC1C(OC(=O)CCC(=O)NC(C)(C)CO)O[C@H]2OC3(C)CC[C@H]4[C@H](C)CCC1C24OO3 (some centres undefined),0.368 µM
3,O=C(N[C@@H]1C/C=C\C[C@H](CC(=O)N(CCO)Cc2ccccc2)C(=O)N[C@@H](Cc2c[nH]c3ccccc23)COC1=O)OCC1c2ccccc2-c2ccccc21,10.9 µM
4,Cc1cc(/C=C2/SC(=S)N(c3ccc([N+](=O)[O-])cc3)C2=O)c(C)n1-c1cccnc1,0.663 µM
5,COc1cc(NS(=O)(=O)c2ccc(C)cc2C)cc(OC)c1OC,6.71 µM
6,CCOc1ccc(NS(=O)(=O)c2cccc(C(=O)N3CCN(C/C=C/c4ccccc4)CC3)c2)cc1,> 20 µM (inactive)
7,NC(=O)c1c(-c2ccc(Cl)cc2Cl)csc1NC(=O)Cc1ccccc1,7.97 µM
8,CCn1c(=O)cc(SCC(=O)N2CCN(C3CCCCC3)CC2)c2ccccc21,11.9 µM
9,FC(F)(F)c1ccc(N2CCN(c3cc(-c4ccccc4)nc4ncnn34)CC2)nc1,3.6 µM
10,Cc1nn(Cc2noc(C(=O)NC3CCC(C)CC3)n2)c(C)c1Br (centres undefined),8.59 µM
11,COc1ccc(CCNc2ncnc3c2oc2ccccc23)cc1OC,2.72 µM
12,O=C(Nc1ccncc1)c1ccc(-c2ccccc2)cc1,6.43 µM
13,CCCn1c(SCC(=O)Nc2nc(-c3ccc(OC)cc3)cs2)nc2c1c(=O)n(C)c(=O)n2C,> 20 µM (inactive)
14,CC1Cc2cc(S(=O)(=O)N3CCC(C(=O)N4CCN(c5ccccc5F)CC4)CC3)ccc2N1C(=O)C1CC1 (centres undefined),4.27 µM
15,COc1ccc(CN(C)Cc2nc(Cc3cccc(F)c3)no2)c2cccnc12,5.96 µM
16,CC(C)Cc1ccc(C(C)C(=O)Nc2cccnc2)cc1 (centres undefined),13 µM
17,CC(=O)/C(=N\Nc1ccc(Cl)cc1Cl)Sc1cccc2cccnc12,1.12 µM
18,COCCNc1nc2c(c(=O)n(C)c(=O)n2C)n1Cc1cccc(C(F)(F)F)c1,3.55 µM
19,CCCc1c(CC)c(=N)c2ccccc2n1C,12.9 µM
20,Cc1ccc(C)c(-c2csc(NC(=O)C3=COCCO3)n2)c1,6.31 µM
21,COc1ccc(N2CCN(c3ncnc4c3[nH]c3ccccc34)CC2)cc1,2.52 µM
22,Cc1nnsc1C(=O)Nc1ccc(S(=O)(=O)N2CCC(C)CC2)cc1,> 20 µM (inactive)
23,CC(C)(C)[C@H]1COC(=O)[C@H](NC(=O)OCC2c3ccccc3-c3ccccc32)C/C=C\C[C@@H](CC(=O)N[C@@H](CO)Cc2ccccc2)C(=O)N1,11.9 µM
24,CC[C@@H](O)C[C@H]1CCC[C@@]2(C[C@@H]3OC(=O)/C=C/[C@@](C)(O)[C@@H](O)[C@H](C)[C@@H](O)[C@H](OC4CCC(N(C)C)C(C)O4)[C@@H](O)[C@](C)(O)CCCCC/C=C/[C@@H]4CC(C)(C)O[C@@]4(O)C[C@H](O2)[C@H]3C)O1 (some centres undefined),< 0.00977 µM
25,C[N+]1=C(/C=C/Nc2ccccc2)C(C)(C)c2ccccc21,5.37 µM
26,O=C(Nc1cc2c3c(c1)C1CCCC1CN3CC1CCCC21)c1ccc([N+](=O)[O-])cc1 (centres undefined),5.09 µM

row,Structure (SMILES),IC50
1,O=C(Nc1cc(N2CCCCC2)ncn1)c1ccccc1,0.294 µM
2,CC(CC(=O)N1CCN(c2cccc(Cl)c2)CC1)S(=O)(=O)c1ccc2c(c1)NC(=O)CO2 (centres undefined),6.43 µM
3,CC[N+]1=C(C)C(C)(C)c2cc(C)ccc21,2.06 µM
4,COc1ccccc1CN(Cc1nc2ccccc2c(=O)[nH]1)S(=O)(=O)c1ccc(C)cc1,> 20 µM (inactive)
5,CCCCn1c(CN(C)Cc2ccccc2)nc2c1c(=O)n(C)c(=O)n2C,6.85 µM
6,COc1ccc(CNc2cc(C)nc3ncnn23)c(OC)c1,10.6 µM
7,O=C(/C=C/c1ccco1)Nc1ccc(-c2nc3ccccc3[nH]2)cc1,1.99 µM
8,CCOc1ccc(-c2nc(CSCC(=O)NCC3CCCO3)c(C)o2)cc1 (centres undefined),1.47 µM
9,CC(=O)c1ccc(N2CCN(c3ccc(C(F)(F)F)cn3)CC2)cc1,8.99 µM
10,CCCCOCCCNc1ncnc2c1[nH]c1ccccc12,3.17 µM
11,CC1CCN(Cc2c(C(=O)N/N=C/c3ccccc3O)nnn2-c2nonc2N)CC1,5.56 µM
12,Fc1ccc(-n2nnnc2-c2cnc(-c3cccs3)nc2C(F)(F)F)cc1,6.43 µM
13,CC(C)n1c(-c2ccco2)csc1=Nc1cccnc1,8.01 µM
14,COc1cc(C(=O)NC2CCN(C)CC2)ccc1Nc1ncc2c(n1)N(CCc1ccccc1)CCC(=O)N2C,4.62 µM
15,CCOC(=O)c1sc2nc(CC(=O)OC)nc(NCc3ccc(Cl)cc3)c2c1C,9.23 µM
16,C[N+]1(CC(=O)OC2CCCCCCCCCCC2)CCCC1,19.3 µM
17,Cc1cc(Br)c(S(=O)(=O)NCc2ccncc2)cc1C,8.04 µM
18,Cc1ccc(-c2c[n+](Cc3ccc(Cl)c(Cl)c3)c3n2CCC3)cc1,2.79 µM
19,S=C(Nc1ccccc1)N1CCC(Cc2ccccc2)CC1,5.67 µM
20,O=C(c1cc(COc2cccc3cnccc23)on1)N1CCCC(CCCO)C1 (centres undefined),1.53 µM
21,CCN1C(=O)CCN(C2CCCC2)c2nc(Nc3ccc(C(=O)NC4CCN(C)CC4)cc3OC)ncc21,3.45 µM
22,CC(C)=CCC/C(C)=C/CNC(=O)C[C@H]1C[C@H](C(=O)N2CCOCC2)[C@@]2(C)c3[nH]c4cc(CCC(=O)N(C)C)ccc4c3CCN2C1=O,4.63 µM
23,Cc1ccc2c(c1)S/C(=C/c1ccc[n+](C)c1)N2CCO,15.2 µM
24,CC(=O)c1c(C)[nH]c(C(=O)OCC(=O)Nc2sc3c(c2C#N)CCCC3)c1C,5.59 µM
25,CCCCCCCOc1ccc(OC(=O)c2cccnc2)cc1,1.06 µM
26,Cc1c(CCOC(=O)C23CC4CC(CC(C)(C4)C2)C3)sc[n+]1Cc1ccccc1,> 20 µM (inactive)

row,Structure (SMILES),IC50
1,CCc1nc(N)nc(N)c1-c1ccc(N(C)Cc2ccccc2)c([N+](=O)[O-])c1,1.57 µM
2,Cc1ccc(NC(=O)COc2ccccc2C(N)=O)cc1S(=O)(=O)N1CCCCCC1,12.3 µM
3,O=S(=O)(NCc1ccncc1)c1ccc(S(=O)(=O)NCC2CCCO2)cc1 (centres undefined),11.5 µM
4,CCN1CCCC1CNc1ncnc2c1[nH]c1ccc(Cl)cc12 (centres undefined),> 20 µM (inactive)
5,O=C(c1ccc(Cl)cc1)N1CCN(c2ccnc3cc(Cl)ccc23)CC1,3.01 µM
6,Cc1nc2sccn2c1-c1csc(NCc2ccccc2)n1,9.83 µM
7,CNc1nc(NCc2ccccc2)c2ccccc2n1,20 µM
8,Cc1ncoc1C(=O)NC1CCCc2c1cnn2-c1ccc(C(C)(C)C)cc1 (centres undefined),7.46 µM
9,Cc1ccc(Cl)cc1N1CCN(C(=O)CSc2nnc3n2C(C)(C)Cc2ccccc2-3)CC1,7.5 µM
10,CCOc1ccc(NC(=S)NNc2ccnc3cc(Cl)ccc23)cc1,5.36 µM
11,CCOC(=O)c1ccc(NC(=O)Cn2cnc3cc(C)c(C)cc32)cc1,2.75 µM
12,C[n+]1c2n(c3ccccc31)N=C(c1ccccc1)CS2,6.49 µM
13,COc1ccc(NS(=O)(=O)c2ccc(N3CCN(CCO)CC3)c([N+](=O)[O-])c2)cc1,8.77 µM
14,C/C(=N\NC(=O)C(=O)Nc1ccc(C)c(Cl)c1)c1ccncc1,1.51 µM
15,Cc1cc(C)c(C(N)=O)c(SCC(=O)c2cc(C)n(-c3cc(C)on3)c2C)n1,4.78 µM
16,CCC(=O)c1ccc(OCC(O)Cn2c(C)nc3ccccc32)cc1 (centres undefined),7.89 µM
17,COc1cc2c(c(OC)c1OC)-c1ccc(N(C)CC(OC)OC)c(=O)cc1[C@@H](NC(C)=O)CC2,7.37 µM
18,CN(Cc1nccs1)C(=O)c1cc(COc2cccc3cnccc23)on1,12 µM
19,COc1cccc(/C=C/c2ccncc2)c1OC,8.95 µM
20,CCOc1ccc(S(=O)(=O)NCc2ccncc2)cc1NC(=O)c1ccccc1,0.94 µM
21,CCCCCCCN1C2=NCCCN2c2ccccc21,11.4 µM
22,COCCOc1nc2c(c(=O)n(C)c(=O)n2C)n1Cc1cccc(OC)c1,9.46 µM
23,CN(C)CCn1c2ccccc2c2nc3ccc([N+](=O)[O-])cc3cc21,7.54 µM
24,O=C(C[n+]1cc(-c2ccccc2)n2c1CCCCC2)c1ccc(Cl)cc1,> 20 µM (inactive)
25,COc1cccc2nc3c(C(=O)NCCN(C)C)cccc3cc12,3.02 µM
26,CCOP(=O)(CCP(=O)(OCC)OCC)OCC.C[CH2][Sn]([Cl])([Cl])[CH2]C,6.24 µM
